From ChEMBL document CHEMBL4837249, “Discovery of Potent Antiallergic Agents Based on an o-Aminopyridinyl Alkynyl Scaffold” (J Med Chem, 2021)

Key:
[1] = molecular target: Tyrosine-protein kinase BTK (Homo sapiens) (UniProt Q06187); assay: Inhibition of human full length recombinant BTK at 50 nM by radiometric scintillation counting analysis relative to control
[2] = molecular target: T1, Tyrosine-protein kinase Tec (Homo sapiens) (UniProt P42680); assay: Inhibition of human recombinant Tec (174 to end) at 50 nM by radiometric scintillation counting analysis relative to control
T1 sequence (whole entry): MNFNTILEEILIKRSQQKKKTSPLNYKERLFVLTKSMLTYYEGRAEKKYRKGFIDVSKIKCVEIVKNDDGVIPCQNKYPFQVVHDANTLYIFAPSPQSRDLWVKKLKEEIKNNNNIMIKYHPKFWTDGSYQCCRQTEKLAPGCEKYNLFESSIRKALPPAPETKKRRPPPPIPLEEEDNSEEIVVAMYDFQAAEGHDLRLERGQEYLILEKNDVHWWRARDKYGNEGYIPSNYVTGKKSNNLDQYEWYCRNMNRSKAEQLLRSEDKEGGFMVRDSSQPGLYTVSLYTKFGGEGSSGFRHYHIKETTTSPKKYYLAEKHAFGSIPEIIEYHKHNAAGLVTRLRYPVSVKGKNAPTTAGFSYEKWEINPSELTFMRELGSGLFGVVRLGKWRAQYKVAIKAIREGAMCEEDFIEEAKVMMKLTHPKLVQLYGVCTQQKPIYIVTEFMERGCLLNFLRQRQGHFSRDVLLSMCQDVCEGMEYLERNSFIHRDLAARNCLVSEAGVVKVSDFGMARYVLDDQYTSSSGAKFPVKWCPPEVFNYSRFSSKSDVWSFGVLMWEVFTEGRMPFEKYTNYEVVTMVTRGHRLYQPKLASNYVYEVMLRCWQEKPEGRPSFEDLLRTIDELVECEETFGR

[3] = test system: RBL-2H3; assay: Antiallergic activity against anti-DNP-IgE sensitized rat RBL-2H3 cells assessed as […] of degranulation by measuring beta-hexosaminidase release using P-nitrophenyl-N-acetyl-D-glucosamide as substrate at 1 uM measured after 1 hr by microplate reader relative to control; type: functional
[4] = molecular target: T2, Tyrosine-protein kinase ITK/TSK (Homo sapiens) (UniProt Q08881); assay: Inhibition of human recombinant ITK (352 to 617) at 500 nM by radiometric scintillation counting analysis relative to control
T2 sequence (whole entry): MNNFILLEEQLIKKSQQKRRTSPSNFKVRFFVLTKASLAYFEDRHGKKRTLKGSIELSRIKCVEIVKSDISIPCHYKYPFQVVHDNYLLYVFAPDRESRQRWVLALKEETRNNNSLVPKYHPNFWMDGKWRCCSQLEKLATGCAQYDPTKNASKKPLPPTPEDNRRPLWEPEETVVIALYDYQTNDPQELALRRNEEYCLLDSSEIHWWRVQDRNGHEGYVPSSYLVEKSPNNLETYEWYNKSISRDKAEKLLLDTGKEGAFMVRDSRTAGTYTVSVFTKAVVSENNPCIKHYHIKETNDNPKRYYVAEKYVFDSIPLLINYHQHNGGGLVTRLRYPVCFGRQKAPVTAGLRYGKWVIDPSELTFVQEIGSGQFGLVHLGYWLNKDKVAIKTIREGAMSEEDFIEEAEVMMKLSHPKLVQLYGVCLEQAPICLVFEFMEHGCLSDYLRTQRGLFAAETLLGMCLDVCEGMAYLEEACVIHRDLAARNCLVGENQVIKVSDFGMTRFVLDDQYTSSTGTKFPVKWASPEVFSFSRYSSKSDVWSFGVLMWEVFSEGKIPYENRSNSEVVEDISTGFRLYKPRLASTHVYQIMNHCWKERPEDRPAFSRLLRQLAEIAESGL

[5] = molecular target: T2, Tyrosine-protein kinase ITK/TSK (Homo sapiens); assay: Inhibition of human recombinant ITK (352 to 617) at 5 nM by radiometric scintillation counting analysis relative to control
[6] = molecular target: Protein-tyrosine kinase 6 (Homo sapiens) (UniProt Q13882); assay: Inhibition of human recombinant BRK (174 to 734) at 5 nM by radiometric scintillation counting analysis relative to control
Protein-tyrosine kinase 6 (Homo sapiens), sequence (Q13882 whole entry, looked up): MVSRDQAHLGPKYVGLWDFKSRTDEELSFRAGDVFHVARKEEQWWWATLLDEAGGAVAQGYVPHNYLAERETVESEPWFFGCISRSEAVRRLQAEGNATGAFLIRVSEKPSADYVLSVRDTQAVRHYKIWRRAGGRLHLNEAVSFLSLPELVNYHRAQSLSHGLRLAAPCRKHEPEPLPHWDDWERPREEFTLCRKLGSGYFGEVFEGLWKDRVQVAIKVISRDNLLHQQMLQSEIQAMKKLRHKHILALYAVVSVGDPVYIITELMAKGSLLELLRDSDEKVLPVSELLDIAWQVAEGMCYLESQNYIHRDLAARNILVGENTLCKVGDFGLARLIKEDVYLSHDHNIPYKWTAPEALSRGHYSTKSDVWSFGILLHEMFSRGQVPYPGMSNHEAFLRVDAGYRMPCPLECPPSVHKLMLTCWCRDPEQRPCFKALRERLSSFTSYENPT

[7] = molecular target: Tyrosine-protein kinase Lyn (Homo sapiens, UniProt P07948); assay: Inhibition of human full length recombinant LYN by radiometric scintillation counting analysis
Tyrosine-protein kinase Lyn, sequence (P07948 whole entry): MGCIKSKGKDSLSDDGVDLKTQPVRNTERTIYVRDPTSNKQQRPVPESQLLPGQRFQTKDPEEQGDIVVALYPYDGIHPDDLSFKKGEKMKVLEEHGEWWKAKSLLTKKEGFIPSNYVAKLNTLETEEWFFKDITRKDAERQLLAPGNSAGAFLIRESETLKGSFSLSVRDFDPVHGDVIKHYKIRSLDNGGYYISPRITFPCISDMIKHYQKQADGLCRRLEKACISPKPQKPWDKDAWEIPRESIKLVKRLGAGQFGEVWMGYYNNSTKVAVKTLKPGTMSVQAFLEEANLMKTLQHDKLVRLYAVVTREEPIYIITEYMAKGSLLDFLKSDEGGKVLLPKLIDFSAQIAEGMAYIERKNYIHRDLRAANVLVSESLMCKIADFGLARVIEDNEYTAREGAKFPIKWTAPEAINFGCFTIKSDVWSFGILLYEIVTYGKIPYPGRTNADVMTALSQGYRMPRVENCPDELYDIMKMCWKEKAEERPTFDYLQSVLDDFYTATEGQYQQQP

[8] = molecular target: Tyrosine-protein kinase Srms (Homo sapiens, UniProt Q9H3Y6); assay: Inhibition of human SRMS by radiometric scintillation counting analysis
[9] = molecular target: Macrophage colony-stimulating factor 1 receptor (Homo sapiens, UniProt P07333); assay: Inhibition of human recombinant CSF1R using ATP/Ulight-TK peptide at 500 nM incubated for 15 mins relative to control
Macrophage colony-stimulating factor 1 receptor, sequence (P07333 whole entry): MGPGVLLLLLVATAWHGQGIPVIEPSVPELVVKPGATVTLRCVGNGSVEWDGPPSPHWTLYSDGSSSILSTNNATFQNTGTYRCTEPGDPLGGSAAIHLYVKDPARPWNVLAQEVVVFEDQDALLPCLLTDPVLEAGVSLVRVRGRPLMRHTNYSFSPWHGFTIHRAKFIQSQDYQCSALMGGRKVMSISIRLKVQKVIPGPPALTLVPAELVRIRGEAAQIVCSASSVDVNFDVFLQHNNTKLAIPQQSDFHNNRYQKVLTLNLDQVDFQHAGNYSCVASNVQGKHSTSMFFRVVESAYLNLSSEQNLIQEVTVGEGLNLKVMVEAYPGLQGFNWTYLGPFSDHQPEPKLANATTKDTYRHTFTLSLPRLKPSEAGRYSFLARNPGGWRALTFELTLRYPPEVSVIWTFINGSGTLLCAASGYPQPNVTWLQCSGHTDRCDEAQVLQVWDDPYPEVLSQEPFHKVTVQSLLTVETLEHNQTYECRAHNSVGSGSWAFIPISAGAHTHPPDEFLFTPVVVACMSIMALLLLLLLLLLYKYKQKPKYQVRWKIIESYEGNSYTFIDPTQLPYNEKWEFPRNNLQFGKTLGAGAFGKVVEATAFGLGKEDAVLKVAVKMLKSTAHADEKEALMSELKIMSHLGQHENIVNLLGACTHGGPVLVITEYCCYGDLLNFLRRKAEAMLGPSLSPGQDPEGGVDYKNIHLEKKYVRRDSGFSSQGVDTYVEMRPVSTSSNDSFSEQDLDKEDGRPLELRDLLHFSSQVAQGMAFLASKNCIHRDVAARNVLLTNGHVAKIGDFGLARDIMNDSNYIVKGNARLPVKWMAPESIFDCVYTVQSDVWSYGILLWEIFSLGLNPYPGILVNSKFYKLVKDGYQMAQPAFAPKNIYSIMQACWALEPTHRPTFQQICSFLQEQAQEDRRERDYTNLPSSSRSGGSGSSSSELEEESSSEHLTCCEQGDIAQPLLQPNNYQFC

[10] = molecular target: T3, Tyrosine-protein kinase ZAP-70 (Homo sapiens) (UniProt P43403); assay: Inhibition of human full length recombinant ZAP70 at 5 nM by radiometric scintillation counting analysis relative to control
T3 sequence (whole entry): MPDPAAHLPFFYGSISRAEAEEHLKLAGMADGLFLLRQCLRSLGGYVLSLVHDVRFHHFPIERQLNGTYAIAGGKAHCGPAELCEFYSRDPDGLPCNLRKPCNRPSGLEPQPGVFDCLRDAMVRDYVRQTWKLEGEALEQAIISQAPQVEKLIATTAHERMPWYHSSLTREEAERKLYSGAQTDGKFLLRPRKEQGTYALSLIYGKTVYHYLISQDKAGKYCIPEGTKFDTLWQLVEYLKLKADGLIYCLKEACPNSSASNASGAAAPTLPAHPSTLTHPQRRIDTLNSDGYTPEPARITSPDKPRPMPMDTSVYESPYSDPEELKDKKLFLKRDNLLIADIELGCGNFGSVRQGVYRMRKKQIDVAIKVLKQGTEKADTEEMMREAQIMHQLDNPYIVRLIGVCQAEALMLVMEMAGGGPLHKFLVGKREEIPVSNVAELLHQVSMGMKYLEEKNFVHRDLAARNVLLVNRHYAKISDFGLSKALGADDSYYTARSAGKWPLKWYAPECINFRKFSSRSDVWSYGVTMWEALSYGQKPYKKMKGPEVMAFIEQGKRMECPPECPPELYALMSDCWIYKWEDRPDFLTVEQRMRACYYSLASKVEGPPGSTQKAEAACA

[11] = molecular target: Protein-tyrosine kinase 6 (Homo sapiens) (UniProt Q13882); assay: Inhibition of human recombinant BRK (174 to 734) at 500 nM by radiometric scintillation counting analysis relative to control
[12] = molecular target: RAC-alpha serine/threonine-protein kinase (Homo sapiens) (UniProt P31749); assay: Inhibition of human recombinant PKBalpha at 50 nM radiometric scintillation counting analysis relative to control
RAC-alpha serine/threonine-protein kinase (Homo sapiens), sequence (P31749 whole entry): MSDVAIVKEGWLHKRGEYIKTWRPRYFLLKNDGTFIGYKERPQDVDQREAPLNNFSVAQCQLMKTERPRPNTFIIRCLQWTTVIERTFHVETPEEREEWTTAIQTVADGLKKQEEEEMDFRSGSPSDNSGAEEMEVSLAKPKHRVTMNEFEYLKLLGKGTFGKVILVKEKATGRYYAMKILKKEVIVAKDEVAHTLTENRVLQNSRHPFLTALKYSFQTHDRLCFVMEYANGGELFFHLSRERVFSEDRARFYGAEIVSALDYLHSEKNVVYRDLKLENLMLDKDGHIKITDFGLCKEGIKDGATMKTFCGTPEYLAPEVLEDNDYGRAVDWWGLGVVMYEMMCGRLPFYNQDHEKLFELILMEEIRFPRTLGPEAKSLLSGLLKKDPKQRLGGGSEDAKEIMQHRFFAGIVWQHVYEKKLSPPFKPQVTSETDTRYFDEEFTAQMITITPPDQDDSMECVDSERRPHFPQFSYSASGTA

[13] = molecular target: Tyrosine-protein kinase HCK (Homo sapiens, UniProt P08631); assay: Inhibition of human recombinant HCK (230 to 497) at 500 nM by radiometric scintillation counting analysis relative to control
Tyrosine-protein kinase HCK, sequence (P08631 2-526 limits assumed): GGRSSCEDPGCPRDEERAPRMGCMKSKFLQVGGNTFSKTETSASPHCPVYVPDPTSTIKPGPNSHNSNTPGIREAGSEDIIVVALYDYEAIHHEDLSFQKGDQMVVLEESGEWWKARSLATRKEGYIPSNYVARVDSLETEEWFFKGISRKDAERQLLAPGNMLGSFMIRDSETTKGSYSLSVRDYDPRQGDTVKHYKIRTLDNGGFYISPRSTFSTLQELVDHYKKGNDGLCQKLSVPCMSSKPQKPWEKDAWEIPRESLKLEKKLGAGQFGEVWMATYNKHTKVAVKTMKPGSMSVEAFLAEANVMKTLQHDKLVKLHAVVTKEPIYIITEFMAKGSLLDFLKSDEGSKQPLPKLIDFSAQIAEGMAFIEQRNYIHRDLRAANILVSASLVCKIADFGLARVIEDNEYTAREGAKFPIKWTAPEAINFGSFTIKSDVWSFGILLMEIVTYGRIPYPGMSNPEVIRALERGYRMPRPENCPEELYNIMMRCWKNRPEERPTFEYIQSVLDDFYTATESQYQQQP

[14] = molecular target: Tyrosine-protein kinase Fgr (Homo sapiens, UniProt P09769); assay: Inhibition of human recombinant FGR (456 to 770) at 50 nM by radiometric scintillation counting analysis relative to control
Tyrosine-protein kinase Fgr, sequence (P09769 2-529 limits assumed): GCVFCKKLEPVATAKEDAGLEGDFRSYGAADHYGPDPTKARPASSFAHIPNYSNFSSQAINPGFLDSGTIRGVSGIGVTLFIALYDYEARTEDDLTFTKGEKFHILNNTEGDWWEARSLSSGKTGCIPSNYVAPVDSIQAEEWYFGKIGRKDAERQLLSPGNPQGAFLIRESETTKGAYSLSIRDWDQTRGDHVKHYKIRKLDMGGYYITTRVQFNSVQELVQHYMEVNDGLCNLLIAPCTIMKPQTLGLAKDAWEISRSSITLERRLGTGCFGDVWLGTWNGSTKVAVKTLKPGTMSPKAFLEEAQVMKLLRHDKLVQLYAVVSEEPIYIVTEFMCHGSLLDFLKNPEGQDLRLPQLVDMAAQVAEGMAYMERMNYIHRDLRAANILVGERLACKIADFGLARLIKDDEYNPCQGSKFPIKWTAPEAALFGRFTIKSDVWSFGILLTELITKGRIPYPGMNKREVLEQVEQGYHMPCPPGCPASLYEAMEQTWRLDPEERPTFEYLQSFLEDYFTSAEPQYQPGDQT

[15] = molecular target: Tyrosine-protein kinase Fyn (Homo sapiens, UniProt P06241); assay: Inhibition of human recombinant Fyn (218 to end) at 5 nM incubated for 15 mins relative to control
Tyrosine-protein kinase Fyn, sequence (P06241 2-537 limits assumed): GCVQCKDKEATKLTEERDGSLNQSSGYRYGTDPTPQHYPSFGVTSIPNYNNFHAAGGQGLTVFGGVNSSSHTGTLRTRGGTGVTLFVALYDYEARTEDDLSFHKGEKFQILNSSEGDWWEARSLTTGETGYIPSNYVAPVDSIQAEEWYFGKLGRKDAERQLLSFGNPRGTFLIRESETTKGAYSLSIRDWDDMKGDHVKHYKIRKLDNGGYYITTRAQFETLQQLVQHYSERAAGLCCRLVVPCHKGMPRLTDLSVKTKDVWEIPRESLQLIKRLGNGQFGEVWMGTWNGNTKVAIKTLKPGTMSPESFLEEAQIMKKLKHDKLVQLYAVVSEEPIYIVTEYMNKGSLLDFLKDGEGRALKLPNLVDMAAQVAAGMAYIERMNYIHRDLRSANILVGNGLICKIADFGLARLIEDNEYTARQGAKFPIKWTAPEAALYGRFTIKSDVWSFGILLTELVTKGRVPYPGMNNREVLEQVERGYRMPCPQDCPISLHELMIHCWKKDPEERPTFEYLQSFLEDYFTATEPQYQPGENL

[16] = molecular target: RAC-alpha serine/threonine-protein kinase (Homo sapiens) (UniProt P31749); assay: Inhibition of human recombinant PKBalpha at 500 nM radiometric scintillation counting analysis relative to control

Tyrosine-protein kinase BTK (Homo sapiens), sequence (Q06187 whole entry): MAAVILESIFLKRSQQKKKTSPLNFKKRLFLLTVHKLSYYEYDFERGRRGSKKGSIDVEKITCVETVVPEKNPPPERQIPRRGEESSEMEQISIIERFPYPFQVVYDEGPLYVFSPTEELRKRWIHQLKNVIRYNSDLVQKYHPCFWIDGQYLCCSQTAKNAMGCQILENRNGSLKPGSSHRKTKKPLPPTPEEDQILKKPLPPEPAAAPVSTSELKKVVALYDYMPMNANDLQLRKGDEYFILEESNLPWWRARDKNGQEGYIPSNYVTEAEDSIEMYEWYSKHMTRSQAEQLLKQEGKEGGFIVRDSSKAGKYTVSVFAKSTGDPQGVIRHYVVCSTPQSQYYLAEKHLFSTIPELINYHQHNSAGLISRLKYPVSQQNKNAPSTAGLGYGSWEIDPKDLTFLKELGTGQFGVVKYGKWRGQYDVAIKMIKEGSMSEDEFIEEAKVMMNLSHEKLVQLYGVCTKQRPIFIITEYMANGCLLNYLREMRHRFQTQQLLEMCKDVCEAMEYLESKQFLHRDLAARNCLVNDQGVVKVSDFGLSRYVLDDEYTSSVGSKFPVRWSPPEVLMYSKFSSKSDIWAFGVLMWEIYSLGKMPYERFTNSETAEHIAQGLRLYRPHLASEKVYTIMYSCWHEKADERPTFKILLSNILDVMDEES

Row | inhibition [4] | inhibition [5] | inhibition [6] | inhibition [9] | inhibition [10] | inhibition [11] | inhibition [12] | inhibition [13] | inhibition [14] | inhibition [15] | inhibition [16] | SMILES | inhibition [1] | inhibition [2] | inhibition at 1 µM [3] | IC50 [7] | IC50 [8]
1 | 19% | -5% | 9% | 98% | 20% | 85% | 7% | 89% | 20% | 2% | 2% | Cc1ccc(C(=O)Nc2ccc(Cl)cc2Cl)cc1C#Cc1cc(-c2cnn(C)c2)cnc1N | 8% | -10% | – | 7 nM | > 1000 nM
2 | -4% | 0% | 17% | 90% | -7% | 92% | 2% | 93% | 34% | 21% | -5% | Cc1ccc(C(=O)Nc2ccc(OC(F)(F)F)cc2)cc1C#Cc1cc(-c2cnn(C)c2)cnc1N | – | – | 144% | – | –

Row | SMILES | inhibition [4] | inhibition [5] | inhibition [6] | inhibition [9] | inhibition [10] | inhibition [11] | inhibition [12] | inhibition [13] | inhibition [14] | inhibition [15] | inhibition [16] | inhibition [1] | inhibition [2] | inhibition at 1 µM [3] | IC50 [7] | IC50 [8]
3 | Cc1ccc(C(=O)Nc2cc(C(F)(F)F)cc(C(F)(F)F)c2)cc1C#Cc1cc(-c2cnn(C)c2)cnc1N | 2% | -8% | -2% | 96% | 9% | 22% | 2% | 97% | 71% | 29% | – | 27% | 10% | 144% | 9 nM | 114 nM
